# Measured values reported in US8329904B2, “Azacyclic derivatives” (Hoffmann-La Roche Inc., priority 2009, dated 2012).
# pIC50: −log10 of the molar value.
# Molecular target: T1, human HSL (Homo sapiens, UniProt Q05469)
# T1 construct: overlapping PCR to generate a full length human HSL ORF with a 3′-His6 tag; His6 (C); made in house; host or cells: High 5 insect cells (baculovirus, pFast-BAC)
# T1 sequence (Q05469 1-1076): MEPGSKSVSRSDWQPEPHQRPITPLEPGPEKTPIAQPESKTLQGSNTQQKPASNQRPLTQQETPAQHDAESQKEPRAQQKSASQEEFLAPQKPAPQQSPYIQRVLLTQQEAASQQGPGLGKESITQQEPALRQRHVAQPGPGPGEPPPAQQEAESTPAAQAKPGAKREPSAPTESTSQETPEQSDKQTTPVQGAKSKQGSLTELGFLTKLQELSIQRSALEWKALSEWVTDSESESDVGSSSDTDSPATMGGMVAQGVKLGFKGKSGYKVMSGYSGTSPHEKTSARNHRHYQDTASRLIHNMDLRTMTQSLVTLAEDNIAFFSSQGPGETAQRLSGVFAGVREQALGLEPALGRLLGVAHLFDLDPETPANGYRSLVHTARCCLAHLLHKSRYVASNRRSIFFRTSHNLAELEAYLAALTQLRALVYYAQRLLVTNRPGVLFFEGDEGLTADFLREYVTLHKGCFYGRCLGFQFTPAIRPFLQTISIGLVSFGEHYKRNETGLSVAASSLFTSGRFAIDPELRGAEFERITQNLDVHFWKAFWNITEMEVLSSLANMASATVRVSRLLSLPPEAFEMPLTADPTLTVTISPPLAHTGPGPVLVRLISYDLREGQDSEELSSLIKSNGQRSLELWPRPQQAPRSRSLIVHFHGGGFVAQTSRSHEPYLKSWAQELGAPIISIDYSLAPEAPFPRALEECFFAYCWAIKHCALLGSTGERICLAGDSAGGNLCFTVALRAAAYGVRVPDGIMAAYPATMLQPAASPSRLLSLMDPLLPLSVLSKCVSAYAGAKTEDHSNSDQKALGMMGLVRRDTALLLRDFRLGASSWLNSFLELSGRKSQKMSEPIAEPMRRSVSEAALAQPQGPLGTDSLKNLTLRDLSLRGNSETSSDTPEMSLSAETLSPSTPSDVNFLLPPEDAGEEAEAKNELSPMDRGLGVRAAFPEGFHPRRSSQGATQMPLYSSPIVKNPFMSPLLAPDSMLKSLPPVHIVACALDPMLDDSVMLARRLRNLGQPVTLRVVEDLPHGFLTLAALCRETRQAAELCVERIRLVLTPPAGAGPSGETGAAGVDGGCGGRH
# Test: Human Hormone-Sensitive Lipase (HSL) Enzyme Inhibition Assay
# Assay type: biochemical
# Details: colorimetric assay, 2,3-dimercapto-1-propanol tributyrate (DMPT) substrate, 37° C. for 20 minutes, absorbance at 405 nm; read-out: HSL hum IC50
# Experimental: Production of Human Full Length Hormone Sensitive Lipase-His^6
# 1) Cloning: cDNA was prepared from commercial human brain polyA-+ RNA and used as a template in overlapping PCR to generate a full length human HSL ORF with a 3′-His6 tag. This full length insert was cloned into the pFast-BAC vector and the DNA-sequence of several single clones was verified. DNA from a correct full length clone with the 3′His6 tag was used to transform the E. coli strain DH10BAC. Resulting bacmid DNA was used to generate a titered baculovirus stock for protein generation.
# Cells were thawed. […] was done at 3×30 sec., Lubrol PX was added to 0.2% final concentration followed by stirring for 15 min. at 4° C. and centrifugation at 25 k×g, 60 min., 4° C. […] Supernatant was removed, the resin washed in the centrifuge vessel using 5 volumes of Base Buffer containing 0.2% Lubrol PX. Centrifugation was done again, then the supernatant discarded. The resin wass poured onto a 0.8 μm membrane in a disposable filter unit (Nalge 450-0080), and washed with 5 volumes of Base Buffer containing 0.2% Lubrol PX. It was then washed with 30 volumes of Base Buffer containing 60 mM imidazole pH 7.5 at 4° C. The protein was eluated with 5 volumes of 25 mM Tris-Cl, 300 mM NaCl, 200 mM imidazole, 10 mM 2-mercaptoethanol, pH 7.5 at 4° C. by tumbling resin with buffer end-over-end, 30 min., 4° C. The resin was captured on a 0.2 μm membrane disposable filter unit (Millipore SCGP U02 RE) and the eluate collected in the reservoir. The eluate was concentrated using a 30 k MWCO centrifugal filter device (Sartorius Vivascience Vivacell 100, VC1022), to 20 ml. It was then dialyzed overnight at 4° C., two times against 2 L of 10% glycerol, 25 mM Tris-Cl, 300 mM NaCl, 0.2 mM EDTA, 0.2 mM DTT, pH 7.5 at 4° C. The protein was filtered using a 0.22 μm disposable filter unit (Millipore SCGP00525). The protein concentration was calculated from absorbance at 280 nm, using 280=0.67 cm-1 mg-1. […] The protein was stored at −80° C.
# Human Hormone-Sensitive Lipase (HSL) Enzyme Inhibition Assay:
# HSL enzyme activity was measured by a colorimetric assay using 2,3-dimercapto-1-propanol tributyrate (Aldrich, St. Louis, Mo.) as a substrate. Typically, 1.5 mM 2,3-dimercapto-1-propanol tributyrate (DMPT) in 100 mM MOPS, pH 7.2, 0.2 mg/ml fatty acid-free BSA was prepared by sonication at 4° C. to homogenous suspension. Test compounds (2 mM stock in DMSO) were diluted 3 fold in series in DMSO. Compound solutions were diluted 24 fold in 1.5 mM DMPT containing solution and 18 ul per well was added to 384-well microplates (Corning Costar). Twelve microliters per well of human HSL (15 ug/ml) was added and the reaction mixture was incubated at 37° C. for 20 minutes. Six microliters of 12 mM dithio-bis-(2-nitrobenzoic acid) (DTNB) in DMSO plus 1.2% SDS and 0.6% Triton X-100 were added and the mixture was incubated at room temperature for 15 minutes. Product production was monitored by reading absorbance at 405 nm on an Envision Reader (PerkinElmer Life and Analytical Sciences, Shelton, Conn.).
row,pIC50,Compound
1,6.62,"O=C1N(c2ccc(C3(O)COC3)cc2)CCC12CCN(S(=O)(=O)c1ccccc1Cl)CC2 [Example 229, 8-(2-Chloro-benzenesulfonyl)-2-[4-(3-hydroxy-oxetan-3-yl)-phenyl]-2,8-diaza-spiro[4.5]decan-1-one]"
2,6.85,"CCCCN(CC)C(=O)N1CCC2(CC1)CCN(c1ccc(OC(F)(F)F)cc1)C2=O [Example 303, 1-Oxo-2-(4-trifluoromethoxy-phenyl)-2,8-diaza-spiro[4.5]decane-8-carboxylic acid butyl-ethyl-amide]"
3,7.40,"O=C1N(c2ccc(OC(F)(F)F)cc2)CCC12CCN(S(=O)(=O)c1cccs1)CC2 [Example 28, 8-(Thiophene-2-sulfonyl)-2-(4-trifluoromethoxy-phenyl)-2,8-diaza-spiro[4.5]decan-1-one]"
4,6.96,"Cc1noc(C)c1S(=O)(=O)N1CCC2(CCN(c3ccc(OC(F)(F)F)cc3)C2=O)CC1 [Example 186, 8-(3,5-Dimethyl-isoxazole-4-sulfonyl)-2-(4-trifluoromethoxy-phenyl)-2,8-diaza-spiro[4.5]decan-1-one]"
5,6.96,"Cc1noc(C)c1S(=O)(=O)N1CCC2(CCN(c3ccc(OC(C)C(F)(F)F)cc3)C2=O)CC1 (stereo not shown) [Example 97, 8-(3,5-Dimethyl-isoxazole-4-sulfonyl)-2-[4-(2,2,2-trifluoro-1-methyl-ethoxy)-phenyl]-2,8-diaza-spiro[4.5]decan-1-one]"
6,6.68,"O=C1N(c2cc(C(F)(F)F)ccc2Cl)CCC12CCN(S(=O)(=O)c1ccccc1Cl)CC2 [Example 154, 8-(2-Chloro-benzenesulfonyl)-2-(2-chloro-5-trifluoromethyl-phenyl)-2,8-diaza-spiro[4.5]decan-1-one]"
7,7.22,"Cc1ccc(S(=O)(=O)N2CCC3(CCN(c4ccc(OS(C)(=O)=O)cc4)C3=O)CC2)s1 [Example 50, Methanesulfonic acid 4-[8-(5-methyl-thiophene-2-sulfonyl)-1-oxo-2,8-diaza-spiro[4.5]dec-2-yl]-phenyl ester]"
8,6.85,"O=C1N(c2ccc(OC(F)(F)F)cc2)CCC12CCN(S(=O)(=O)c1cnccc1Cl)CC2 [Example 199, 8-(4-Chloro-pyridine-3-sulfonyl)-2-(4-trifluoromethoxy-phenyl)-2,8-diaza-spiro[4.5]decan-1-one]"
9,6.85,"CCCN(C)C(=O)N1CCC2(CC1)CCN(c1ccc(OC(F)(F)F)cc1)C2=O [Example 253, 1-Oxo-2-(4-trifluoromethoxy-phenyl)-2,8-diaza-spiro[4.5]decane-8-carboxylic acid methyl-propyl-amide]"
10,7.10,"O=C1N(c2ccc(CC(F)(F)F)cc2)CCC12CCN(S(=O)(=O)c1ccccc1C(F)(F)F)CC2 [Example 73, 2-[4-(2,2,2-Trifluoro-ethyl)-phenyl]-8-(2-trifluoromethyl-benzenesulfonyl)-2,8-diaza-spiro[4.5]decan-1-one]"
11,7.15,"CN(c1ccccc1)S(=O)(=O)N1CCC2(CCN(c3ccc(OC(F)(F)F)cc3)C2=O)CC1 [Example 295, 1-Oxo-2-(4-trifluoromethoxy-phenyl)-2,8-diaza-spiro[4.5]decane-8-sulfonic acid methyl-phenyl-amide]"
12,7.52,"O=C1N(c2ccc(C3CC3)cc2)CCC12CCN(S(=O)(=O)c1ccccc1Cl)CC2 [Example 33, 8-(2-Chloro-benzenesulfonyl)-2-(4-cyclopropyl-phenyl)-2,8-diaza-spiro[4.5]decan-1-one]"
13,7.22,"Cc1nn(C)c(C)c1S(=O)(=O)N1CCC2(CCN(c3ccc(OC(F)(F)F)cc3)C2=O)CC1 [Example 180, 2-(4-Trifluoromethoxy-phenyl)-8-(1,3,5-trimethyl-1H-pyrazole-4-sulfonyl)-2,8-diaza-spiro[4.5]decan-1-one]"
14,7.70,"COc1ncccc1S(=O)(=O)N1CCC2(CCN(c3ccc(OC(F)(F)F)cc3)C2=O)CC1 [Example 194, 8-(2-Methoxy-pyridine-3-sulfonyl)-2-(4-trifluoromethoxy-phenyl)-2,8-diaza-spiro[4.5]decan-1-one]"
15,6.82,"O=C1N(c2ccc(OC(F)(F)F)cc2)CCC12CCN(S(=O)(=O)/C=C1/CCCO1)CC2 [Example 213, 8-[Dihydro-furan-(2Z)-ylidenemethanesulfonyl]-2-(4-trifluoromethoxy-phenyl)-2,8-diaza-spiro[4.5]decan-1-one]"
16,6.66,"O=C(N1CCCCCC1)N1CCC2(CC1)CCN(c1ccc(OC(F)(F)F)cc1)C2=O [Example 271, 8-(Azepane-1-carbonyl)-2-(4-trifluoromethoxy-phenyl)-2,8-diaza-spiro[4.5]decan-1-one]"
17,7.40,"O=C1N(c2ccc(C(O)(C(F)(F)F)C(F)(F)F)cc2)CCC12CCN(S(=O)(=O)c1ccccc1Cl)CC2 [Example 157, 8-(2-Chloro-benzenesulfonyl)-2-[4-(2,2,2-trifluoro-1-hydroxy-1-trifluoromethyl-ethyl)-phenyl]-2,8-diaza-spiro[4.5]decan-1-one]"
18,6.82,"O=C1N(c2ccc(OC(F)(F)F)cc2)CCC12CCN(S(=O)(=O)c1ccc(Cl)nc1)CC2 [Example 198, 8-(6-Chloro-pyridine-3-sulfonyl)-2-(4-trifluoromethoxy-phenyl)-2,8-diaza-spiro[4.5]decan-1-one]"
19,6.89,"O=C1N(c2ccc(OC(F)(F)F)cc2)CCC12CCN(S(=O)(=O)C1CC1)CC2 [Example 96, 8-Cyclopropanesulfonyl-2-(4-trifluoromethoxy-phenyl)-2,8-diaza-spiro[4.5]decan-1-one]"
20,7.00,"CCc1ccc(N2CCC3(CCN(S(=O)(=O)CC(C)C)CC3)C2=O)cc1 [Example 24, 2-(4-Ethyl-phenyl)-8-(2-methyl-propane-1-sulfonyl)-2,8-diaza-spiro[4.5]decan-1-one]"
21,7.30,"COCCCc1ccc(N2CCC3(CCN(S(=O)(=O)c4ccccc4OC(F)(F)F)CC3)C2=O)cc1 [Example 146, 2-[4-(3-Methoxy-propyl)-phenyl]-8-(2-trifluoromethoxy-benzenesulfonyl)-2,8-diaza-spiro[4.5]decan-1-one]"
22,6.96,"CCC(C(=O)N1CCC2(CC1)CCN(c1ccc(OC(F)(F)F)cc1)C2=O)c1ccccc1 (stereo not shown) [Example 223, 8-(2-Phenyl-butyryl)-2-(4-trifluoromethoxy-phenyl)-2,8-diaza-spiro[4.5]decan-1-one]"
